Values of other authors, collected in paper PMC7395068, “The evolution of strategies to minimise the risk of human drug-induced liver injury (DILI) in drug discovery and development” (Archives of Toxicology, 2020).
Where two headings read alike, the source gives them in different places.

What was measured:
HepG2 = test system: HepG2; parameters: method as in Albrecht 2019; settings: In vitro Assay; ref Albrecht 2019; cited from earlier work
[1] = ref Chen 2016; cited from earlier work
HepG2 cells [2] = settings: In vitro Assay; ref O'Brien 2006; cited from earlier work
human hepatocytes = settings: In vitro Assay; ref Xu 2008; cited from earlier work
[3] = cited from earlier work
PHH = settings: In vitro Assay; ref Albrecht 2019; cited from earlier work
[4] = test system: HepG2 cells, primary human hepatocytes; settings: In vitro Assay; ref Garside 2014; cited from earlier work
[5] = ref Chen 2011; cited from earlier work
rBsep = settings: In vitro Assay; ref Dawson 2012; cited from earlier work
HepG2 cells [6] = settings: In vitro Assay; ref Persson 2013; cited from earlier work
PHH spheroids = settings: In vitro Assay; ref Vorrink 2018; cited from earlier work
[7] = test system: primary human hepatocytes, NIH3T3 fibroblasts, BSEP, CYP3A4; settings: In vitro Assay; ref Schadt 2015; cited from earlier work
[8] = test system: THLE or HepG2 cells, isolated mitochondria, BSEP; settings: In vitro Assay; ref Aleo 2019; cited from earlier work
[9] = test system: THLE-Null and THLE-3A4 cells; settings: In vitro Assay; ref Gustafsson 2014; cited from earlier work

Compound | Cytotoxicity HepG2 48 hrs (HepG2) | DILI +VE (5-8), DILI -VE (-4) [1] | DILI severity category [1] | Structural based (HCI) (HepG2 cells [2]) | Structural based (HCI) (human hepatocytes) | In vivo DILI ([3]; ref Albrecht 2019) | In vivo DILI ([3]; ref Dawson 2012) | In vivo DILI ([3]; ref Garside 2014) | In vivo DILI ([3]; ref O'Brien 2006) | In vivo DILI ([3]; ref Xu 2008) | Cytotoxicity PHH 48 hrs (PHH) | Cluster 1-6 +VE Assay [4] | DILI Score (FDA) (1-8) [5] | Inhibition of rBsep cutoff<1& cmax u>.2 (rBsep) | Inhibition of rBsep cutoff<3 (rBsep) | In vivo DILI ([3]; […]) | In vivo DILI ([3]; ref Aleo 2019) | Cellular toxicity (3T3 cells) [7] | Combined Assay [7] | GSH adduct HML [7] | also measured
NC(N)=Nc1nc(CSCCC(N)=NS(N)(=O)=O)cs1 [famotidine] | -VE | +VE | vLess-DILI-Concern | +VE | -VE | -VE | +VE | +VE | +VE | -VE | -VE | -VE | 3 | -VE | -VE |  |  |  |  |  | 
CC(CCc1ccccc1)NCC(O)c1ccc(O)c(C(N)=O)c1 (centres unmarked) [labetalol] | +VE | +VE | vMost-DILI-Concern | +VE | +VE | +VE |  | +VE | +VE | +VE | +VE | +VE | 8 |  |  | +VE | +VE |  |  |  | Cluser analysis (HepG2 cells [6]): -VE; Structural based (HCI) (HepG2 cells [6]): -VE; hLiMTs ATP <20 x Cmax (PHH spheroids): -VE; In vivo DILI ([3]; ref Persson 2013): +VE; In vivo DILI ([3]; ref Vorrink 2018): +VE
Cc1oncc1C(=O)Nc1ccc(C(F)(F)F)cc1 [leflunomide] | +VE | +VE | vMost-DILI-Concern | +VE | -VE | +VE | +VE | +VE | +VE | +VE | +VE | -VE | 8 | -VE | +VE |  | +VE | -VE | -VE | +VE | Hepatocyte cellular toxicity [7]: -VE; MitoTox 3T3 [7]: -VE; TDI CYP3A4 [7]: -VE; hBSEP inhibition [7]: -VE; Partition Hybrid HRM Score [8]: +VE; Ro2 Hybrid HRM Score [8]: +VE; In vivo DILI ([3]; ref Gustafsson 2014): +VE; In vivo DILI ([3]; ref Schadt 2015): +VE; THLE-Null [9]: -VE; THLE-Null/3A4 [9]: -VE
Cc1ccnc2c1NC(=O)c1cccnc1N2C1CC1 [nevirapine] | +VE | +VE | vMost-DILI-Concern |  |  | +VE |  | +VE |  |  | +VE | -VE | 8 |  |  | +VE | +VE | -VE | +VE | +VE | Hepatocyte cellular toxicity [7]: -VE; MitoTox 3T3 [7]: +VE; TDI CYP3A4 [7]: -VE; hBSEP inhibition [7]: -VE; Partition Hybrid HRM Score [8]: +VE; Ro2 Hybrid HRM Score [8]: -VE; In vivo DILI ([3]; ref Schadt 2015): +VE
